Among the data in patent US20240228504A1, “SUBSTITUTED TRICYCLIC AMIDES, ANALOGUES THEREOF, AND METHODS USING SAME” (Arbutus Biopharma Corporation, priority 2020, published 2024) are EC50 values, retold here.

A word on the EC50: it is the concentration that produces a half-maximal response.

For one assay, the system named is HBV rcDNA in HepDE19 cells. The assay is described as follows: HepDE19 assay with bDNA quantitation of HBV rcDNA. Type of assay: cell-based, hepatitis B virus. The conditions noted are these: HepDE19 assay, inhibition of rcDNA formation, bDNA quantitation; read-out: DE-19bDNA EC50.
On to `CN(C(=O)c1cc2c(Cl)cccc2[nH]1)C1COCc2[nH]c(=O)c3cc(F)ccc3c21` (single isomer, unassigned) [Compound 425, 4-Chloro-N-(8-fluoro-6-oxo-1,4,5,6-tetrahydro-2H-pyrano[3,4-c]isoquinolin-1-yl)-N-methyl-1H-indole-2-carboxamide], for which the EC50 was 0.02 µM.
For `CN(C(=O)c1cc2c(C(F)F)cccn2c1)C1CNCc2[nH]c(=O)c3cc(F)c(F)cc3c21` (single isomer, unassigned) [Compound 430, N-(8,9-Difluoro-6-oxo-1,2,3,4,5,6-hexahydrobenzo[c][1,7]naphthyridin-1-yl)-8-(difluoromethyl)-N-methylindolizine-2-carboxamide], the EC50 was 6.3 µM.
Same read-out and setting: with `CN(C(=O)c1cc2c(C(F)F)cccn2c1)C1CNCc2[nH]c(=O)c3cc(F)c(F)cc3c21` (single isomer, unassigned) [Compound 431, N-(8,9-Difluoro-6-oxo-1,2,3,4,5,6-hexahydrobenzo[c][1,7]naphthyridin-1-yl)-8-(difluoromethyl)-N-methylindolizine-2-carboxamide] the figure was 0.01 µM; with `CN(C(=O)c1cc2cccc(C(F)F)n2c1)C1CNCc2[nH]c(=O)c3cc(F)c(F)cc3c21` (single isomer, unassigned) [Compound 432, N-(8,9-Difluoro-6-oxo-1,2,3,4,5,6-hexahydrobenzo[c][1,7]naphthyridin-1-yl)-5-(difluoromethyl)-N-methylindolizine-2-carboxamide], 23 µM; with `CN(C(=O)c1cc2cccc(C(F)F)n2c1)C1CNCc2[nH]c(=O)c3cc(F)c(F)cc3c21` (single isomer, unassigned) [Compound 433, N-(8,9-Difluoro-6-oxo-1,2,3,4,5,6-hexahydrobenzo[c][1,7]naphthyridin-1-yl)-5-(difluoromethyl)-N-methylindolizine-2-carboxamide], 0.05 µM.
Take `CN(C(=O)c1cc2c(Cl)cc(F)cc2[nH]1)C1COCc2[nH]c(=O)c3cc(F)ccc3c21` (single isomer, unassigned) [Compound 438, 4-Chloro-6-fluoro-N-(8-fluoro-6-oxo-1,4,5,6-tetrahydro-2H-pyrano[3,4-c]isoquinolin-1-yl)-N-methyl-1H-indole-2-carboxamide]: the EC50 was found to be 1.7 µM.
The same measure, in the same setting: with `CN(C(=O)c1cc2c(Cl)cc(F)cc2[nH]1)C1COCc2[nH]c(=O)c3cc(F)ccc3c21` (single isomer, unassigned) [Compound 439, 4-Chloro-6-fluoro-N-(8-fluoro-6-oxo-1,4,5,6-tetrahydro-2H-pyrano[3,4-c]isoquinolin-1-yl)-N-methyl-1H-indole-2-carboxamide] the figure was 0.02 µM; with `CN(C(=O)c1cc2c(Cl)cccc2[nH]1)C1CNCc2[nH]c(=O)c3cc(F)c(F)cc3c21` (single isomer, unassigned) [Compound 440, 4-Chloro-N-(8,9-difluoro-6-oxo-1,2,3,4,5,6-hexahydrobenzo[c][1,7]naphthyridin-1-yl)-N-methyl-1H-indole-2-carboxamide], 2.2 µM.
Same read-out and setting: with `CN(C(=O)c1cc2c(Cl)cccc2[nH]1)C1CNCc2[nH]c(=O)c3cc(F)c(F)cc3c21` (single isomer, unassigned) [Compound 441, 4-Chloro-N-(8,9-difluoro-6-oxo-1,2,3,4,5,6-hexahydrobenzo[c][1,7]naphthyridin-1-yl)-N-methyl-1H-indole-2-carboxamide] the figure was 0.02 µM.
Still for that read-out and setting: the figure for `CN(C(=O)c1ccc2c(c1)CCC2)C1COCc2[nH]c(=O)c3cc(F)ccc3c21` (single isomer, unassigned) [Compound 442, N-(8-Fluoro-6-oxo-1,4,5,6-tetrahydro-2H-pyrano[3,4-c]isoquinolin-1-yl)-N-methyl-2,3-dihydro-1H-indene-5-carboxamide] is 19 µM.
Regarding `CN(C(=O)c1ccc2c(c1)CCC2)C1COCc2[nH]c(=O)c3cc(F)ccc3c21` (single isomer, unassigned) [Compound 443, N-(8-Fluoro-6-oxo-1,4,5,6-tetrahydro-2H-pyrano[3,4-c]isoquinolin-1-yl)-N-methyl-2,3-dihydro-1H-indene-5-carboxamide], the concentration giving a half-maximal response (EC50) is 0.64 µM.
As for `CN(C(=O)c1ccc2scnc2c1)C1COCc2[nH]c(=O)c3cc(F)ccc3c21` (single isomer, unassigned) [Compound 444, N-(8-fluoro-6-oxo-1,4,5,6-tetrahydro-2H-pyrano[3,4-c]isoquinolin-1-yl)-N-methylbenzo[d]thiazole-5-carboxamide], the EC50 stood at 12.2 µM.
On to `CN(C(=O)c1ccc2scnc2c1)C1COCc2[nH]c(=O)c3cc(F)ccc3c21` (single isomer, unassigned) [Compound 445, N-(8-fluoro-6-oxo-1,4,5,6-tetrahydro-2H-pyrano[3,4-c]isoquinolin-1-yl)-N-methylbenzo[d]thiazole-5-carboxamide], for which the EC50 amounted to 0.7 µM.
In the case of `CN(C(=O)c1ccc2ncsc2c1)C1COCc2[nH]c(=O)c3cc(F)ccc3c21` (single isomer, unassigned) [Compound 446, N-(8-fluoro-6-oxo-1,4,5,6-tetrahydro-2H-pyrano[3,4-c]isoquinolin-1-yl)-N-methylbenzo[d]thiazole-6-carboxamide], the half-maximal effective concentration (EC50) is 16 µM.
On to `CN(C(=O)c1ccc2ncsc2c1)C1COCc2[nH]c(=O)c3cc(F)ccc3c21` (single isomer, unassigned) [Compound 447, N-(8-fluoro-6-oxo-1,4,5,6-tetrahydro-2H-pyrano[3,4-c]isoquinolin-1-yl)-N-methylbenzo[d]thiazole-6-carboxamide], for which the EC50 was 0.94 µM.
Same read-out and setting: the figure for `CN(C(=O)c1cc2sc(Cl)cc2[nH]1)C1CNCc2[nH]c(=O)c3cc(F)c(F)cc3c21` (single isomer, unassigned) [Compound 453, 2-chloro-N-(8,9-difluoro-6-oxo-1,2,3,4,5,6-hexahydrobenzo[c][1,7]naphthyridin-1-yl)-N-methyl-4H-thieno[3,2-b]pyrrole-5-carboxamide] is 2.2 µM; for `CN(C(=O)c1cc2sc(Cl)cc2[nH]1)C1CNCc2[nH]c(=O)c3cc(F)c(F)cc3c21` (single isomer, unassigned) [Compound 454, 2-chloro-N-(8,9-difluoro-6-oxo-1,2,3,4,5,6-hexahydrobenzo[c][1,7]naphthyridin-1-yl)-N-methyl-4H-thieno[3,2-b]pyrrole-5-carboxamide] it is 0.02 µM; for `Cc1cccc2[nH]c(C(=O)N(C)C3CNCc4[nH]c(=O)c5cc(F)c(F)cc5c43)cc12` (single isomer, unassigned) [Compound 456, N-(8,9-difluoro-6-oxo-1,2,3,4,5,6-hexahydrobenzo[c][1,7]naphthyridin-1-yl)-N,4-dimethyl-1H-indole-2-carboxamide] it is 2.2 µM.
Still for that read-out and setting: the figure for `Cc1cccc2[nH]c(C(=O)N(C)C3CNCc4[nH]c(=O)c5cc(F)c(F)cc5c43)cc12` (single isomer, unassigned) [Compound 457, N-(8,9-difluoro-6-oxo-1,2,3,4,5,6-hexahydrobenzo[c][1,7]naphthyridin-1-yl)-N,4-dimethyl-1H-indole-2-carboxamide] is 0.01 µM.
As to `Cc1cc(F)cc2[nH]c(C(=O)N(C)C3CNCc4[nH]c(=O)c5cc(F)c(F)cc5c43)cc12` (single isomer, unassigned) [Compound 458, N-(8,9-difluoro-6-oxo-1,2,3,4,5,6-hexahydrobenzo[c][1,7]naphthyridin-1-yl)-6-fluoro-N,4-dimethyl-1H-indole-2-carboxamide], the EC50 was 6.6 µM.
Still for that read-out and setting: the figure for `Cc1cc(F)cc2[nH]c(C(=O)N(C)C3CNCc4[nH]c(=O)c5cc(F)c(F)cc5c43)cc12` (single isomer, unassigned) [Compound 459, N-(8,9-difluoro-6-oxo-1,2,3,4,5,6-hexahydrobenzo[c][1,7]naphthyridin-1-yl)-6-fluoro-N,4-dimethyl-1H-indole-2-carboxamide] is 0.01 µM; for `CN(C(=O)c1cc2c(Cl)cc(F)cc2[nH]1)C1CNCc2[nH]c(=O)c3cc(F)c(F)cc3c21` (single isomer, unassigned) [Compound 460, 4-chloro-N-(8,9-difluoro-6-oxo-1,2,3,4,5,6-hexahydrobenzo[c][1,7]naphthyridin-1-yl)-6-fluoro-N-methyl-1H-indole-2-carboxamide] it is 11.2 µM.
For `CN(C(=O)c1cc2c(Cl)cc(F)cc2[nH]1)C1CNCc2[nH]c(=O)c3cc(F)c(F)cc3c21` (single isomer, unassigned) [Compound 461, 4-chloro-N-(8,9-difluoro-6-oxo-1,2,3,4,5,6-hexahydrobenzo[c][1,7]naphthyridin-1-yl)-6-fluoro-N-methyl-1H-indole-2-carboxamide], the EC50 turned out to be 0.03 µM.
Still for that read-out and setting: the figure for `CN(C(=O)c1ccc2ncsc2c1)C1CNCc2[nH]c(=O)c3cc(F)c(F)cc3c21` (single isomer, unassigned) [Compound 465, N-(8,9-difluoro-6-oxo-1,2,3,4,5,6-hexahydrobenzo[c][1,7]naphthyridin-1-yl)-N-methylbenzo[d]thiazole-6-carboxamide] is 3.2 µM.

Staying with this assay, now noted: Hepatitis B virus, HepDE19, HepDE19 assay, inhibition of rcDNA formation, bDNA quantitation; read-out: DE-19bDNA EC50.
With `CN(C(=O)c1cnc(C(F)(F)F)c(F)c1)C1CNCc2[nH]c(=O)c3cc(F)c(F)cc3c21` (single isomer, unassigned) [Compound 435, N-(8,9-Difluoro-6-oxo-1,2,3,4,5,6-hexahydrobenzo[c][1,7]naphthyridin-1-yl)-5-fluoro-N-methyl-6-(trifluoromethyl)nicotinamide], the EC50 came out at 0.26 µM.
The same measure, in the same setting: with `CN(C(=O)c1ccc2[nH]ncc2c1)C1COCc2[nH]c(=O)c3cc(F)ccc3c21` (single isomer, unassigned) [Compound 449, N-(8-fluoro-6-oxo-1,4,5,6-tetrahydro-2H-pyrano[3,4-c]isoquinolin-1-yl)-N-methyl-1H-indazole-5-carboxamide] the figure was 5.6 µM; with `CN(C(=O)c1ccc2scnc2c1)C1CNCc2[nH]c(=O)c3cc(F)c(F)cc3c21` (single isomer, unassigned) [Compound 463, N-(8,9-difluoro-6-oxo-1,2,3,4,5,6-hexahydrobenzo[c][1,7]naphthyridin-1-yl)-N-methylbenzo[d]thiazole-5-carboxamide], 2 µM.
